# Test results published in patent US7935719B2, “N-substituted-azacyclylamines as histamine-3 antagonists” (Wyeth LLC, priority 2006, dated 2011).
# Structures can show the parent of a compound that is named as a salt.
# Target: Histamine Receptor H3 (Homo sapiens, UniProt Q9Y5N1)
# Assay: Methyl histamine binding in human histamine H3 receptor cell line
# Set-up: expressed in transfected cells; host or cells: HEK293T
# Conditions: membranes of stably transfected HEK293T cells, radioligand 1 nM, Ki from IC50 by Cheng-Prusoff
# Description: Evaluation of Methyl Histamine Binding in Human Histamine H3 Receptor Cell Line
# The affinity of test compounds for the histamine 3 (H3) receptor is evaluated in the following manner. […] Cells are scraped from the plate, transferred to centrifuge tubes, washed one time in PBS by centrifugation in a Sorvall RT7 Plus centrifuge (2000 rpm 10 minutes, 4° C.). The resulting pellets are stored at −80° C. until ready for use. Cells are re-suspended in buffer (50 mM Tris pH=7.5) and placed in a Dounce homogenizer, douncing ten times to homogenize cells. The homogenate is spun down by centrifugation (Sorvall RT7 Plus, 1800 rpm 10 minutes, 4° C.). The supernatant is placed in a Corex tube and spun down by centrifugation (Sorvall RC 5c Plus, 17,000 rpm 20 minutes, 4° C.). The pellet is resuspended in buffer (50 mM Tris, pH 7.5). Protein concentration (ug/ul) is determined using the Micro-BCA Protein Determination. The binding assay is set up in a 96 well microtiter plate in a total volume of 250 uL. Non-specific binding is determined in the presence of 10 uM clobenpropit. The final radioligand concentration is 1 nM. The test compound is serially diluted using the Beckman Biomek2000 to a final approximate range of 100 uM to 100 pM. Membranes are suspended in buffer, homogenized in 2 bursts of ten seconds using a Vitris mechanical homogenizer set at power setting 5. Ten μg of membranes are added to each well. Following a one hour incubation at 30° C., the reaction is terminated by the addition of ice cold buffer and rapid filtration with a Packard Filtermate Harvester through a GF/B filter pre-soaked with 1% PEI for one hour. The plate is dried for one hour at 37° C. and 60 μL Microscint Scintillant is added to each well. The CPM per well is measured on a Packard Top Count NXT. Ki values are determined in nM. […] CPM values are expressed as % specific binding and plotted vs compound concentration. A curve is fitted using a four-parameter logistic fit and the IC50 value is determined. The Ki is calculated from this using the Cheng-Prusoff equation: […]=IC50/1+(L/Kd) where L=concentration of free radioligand used in the assay, and Kd is the dissociation constant of the radioligand for the receptor. L is determined for each experiment by counting an aliquot of the diluted radioligand (corresponding to that added to each well) and the Kd has previously been determined under identical conditions for this cell line/radioligand.
# Histamine Receptor H3, sequence (Q9Y5N1 whole entry): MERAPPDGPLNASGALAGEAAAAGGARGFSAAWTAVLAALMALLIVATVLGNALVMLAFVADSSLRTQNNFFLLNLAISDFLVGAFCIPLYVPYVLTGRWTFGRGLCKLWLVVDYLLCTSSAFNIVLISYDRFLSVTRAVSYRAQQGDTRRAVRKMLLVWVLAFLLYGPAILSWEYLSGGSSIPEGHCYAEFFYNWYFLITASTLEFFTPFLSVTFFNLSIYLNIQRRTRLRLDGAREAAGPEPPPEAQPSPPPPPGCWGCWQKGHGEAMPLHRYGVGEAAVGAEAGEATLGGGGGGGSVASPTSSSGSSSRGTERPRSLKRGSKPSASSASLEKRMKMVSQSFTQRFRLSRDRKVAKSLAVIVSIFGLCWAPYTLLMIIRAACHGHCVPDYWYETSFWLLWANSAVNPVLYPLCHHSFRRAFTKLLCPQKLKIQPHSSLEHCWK
row,Ki,Compound
1,10.1 to 25 nM,"C[C@@H]1CCCN1[C@H]1CCN(C(=O)c2ccc(-n3cnc4ccccc43)cc2)C1 [Example 6, (2R,3′S)-1′-[4-(1H-benzimidazol-1-yl)benzoyl]-2-methyl-1,3′-bipyrrolidine]"
2,< 10 nM,"CC1CCCN([C@H]2CCN(C(=O)c3ccc(-n4cnc5ccccc54)cc3)C2)C1 (stereo partly drawn) [Example 8, 1-(4-{[(3S)-3-(3-methylpiperidin-1-yl)pyrrolidin-1-yl]carbonyl}phenyl)-1H-benzimidazole]"
3,> 100 nM,"CC1CCN([C@H]2CCN(C(=O)c3ccc(-n4cnc5ccccc54)cc3)C2)CC1 [Example 9, 1-(4-{[(3S)-3-(4-methylpiperidin-1-yl)pyrrolidin-1-yl]carbonyl}phenyl)-1H-benzimidazole]"
4,> 100 nM,"CN1CCN([C@H]2CCN(C(=O)c3ccc(-n4cnc5ccccc54)cc3)C2)CC1 [Example 10, 1-(4-{[(3S)-3-(4-methylpiperazin-1-yl)pyrrolidin-1-yl]carbonyl}phenyl)-1H-benzimidazole]"
5,25.1 to 50 nM,"CC1CCCCN1[C@H]1CCN(C(=O)c2ccc(-n3cnc4ccccc43)cc2)C1 (stereo partly drawn) [Example 12, 1-(4-{[(3S)-3-(2-methylpiperidin-1-yl)pyrrolidin-1-yl]carbonyl}phenyl)-1H-benzimidazole]"
6,< 10 nM,"O=C(c1ccc(-n2cnc3ccccc32)cc1)N1CC[C@H](N2CCCCC2)C1 [Example 13, 1-(4-{[(3S)-3-piperidin-1-ylpyrrolidin-1-yl]carbonyl}phenyl)-1H-benzimidazole]"
7,< 10 nM,"c1ccc2c(c1)ncn2-c1ccc(CN2CC[C@H](N3CCCC3)C2)cc1 [Example 14, (3′S)-1′-[4-(1H-benzimidazol-1-yl)benzyl]-1,3′-bipyrrolidine hydrochloride]"
8,< 10 nM,"c1ccc2c(c1)ncn2-c1ccc(CN2CC[C@H](N3CCCCC3)C2)cc1 [Example 15, (1-(4-{[(3S)-3-piperidin-1-ylpyrrolidin-1-yl]methyl}phenyl)-1H-benzimidazolefumaric acid salt]"
9,< 10 nM,"Cc1nc2ccccc2n1-c1ccc(CN2CC[C@H](N3CCCC3)C2)cc1 [Example 17, (3′S)-1′-[4-(2-methyl-1H-benzimidazol-1-yl)benzyl]-1,3′-bipyrrolidine]"
10,< 10 nM,"Cc1nc2ccccc2n1-c1ccc(CN2CC[C@H](N3CCCCCC3)C2)cc1 [Example 18, 1-(4-{[(3S)-3-azepan-1-ylpyrrolidin-1-yl]methyl}phenyl)-2-methyl-1H-benzimidazole]"
11,< 10 nM,"Cc1nc2ccccc2n1-c1ccc(C(=O)N2CC[C@H](N3CCCCCC3)C2)cc1 [Example 20, 1-(4-{[(3S)-3-azepan-1-ylpyrrolidin-1-yl]carbonyl}phenyl)-2-methyl-1H-benzimidazole fumaric acid salt]"
12,< 10 nM,"Cc1nc2ccccc2n1-c1ccc(C(=O)N2CC[C@H](N3CCCCC3C)C2)cc1 (stereo partly drawn) [Example 23, 2-methyl-1-(4-{[(3S)-3-(2-methylpiperidin-1-yl)pyrrolidin-1-yl]carbonyl}phenyl)-1H-benzimidazole]"
13,25.1 to 50 nM,"Cc1nc2ccccc2n1-c1ccc(C(=O)N2CC[C@H](N3CCC(C)CC3)C2)cc1 [Example 25, 2-methyl-1-(4-{[(3S)-3-(4-methylpiperidin-1-yl)pyrrolidin-1-yl]carbonyl}phenyl)-1H-benzimidazole]"
14,> 100 nM,"Cc1nc2ccccc2n1-c1ccc(C(=O)N2CC[C@H](N3CCN(C)CC3)C2)cc1 [Example 26, 2-methyl-1-(4-{[(3S)-3-(4-methylpiperazin-1-yl)pyrrolidin-1-yl]carbonyl}phenyl)-1H-benzimidazole]"
15,< 10 nM,"O=C(c1ccc(-n2ccc3ccccc32)cc1)N1CC[C@H](N2CCCC2)C1 [Example 30, (3′S)-1′-[4-(1H-indol-1-yl)benzoyl]-1,3′-bipyrrolidine hydrochloride]"
16,< 10 nM,"O=C(c1ccc(-n2ccc3c(Cl)cccc32)cc1)N1CC[C@H](N2CCCC2)C1 [Example 32, (3′S)-1′-[4-(4-chloro-1H-indol-1-yl)benzoyl]-1,3′-bipyrrolidine]"
